Measurements as given in patent publication US9011853B2, “B7-H4 fusion proteins and methods of use thereof” (Amplimmune, Inc., priority 2009, dated 2015).
Several values for one entry are separate records, joined by “and”; a condition that tells them apart may be missing. Equal entries are not always repeated.

Test system: serum levels of 58 analytes
Assay: Serum biomarker analysis, quantitative immunoassay multi-analyte profiling (Rules-Based Medicine RodentMAP v2.9), AA#80
Type: in vivo, mouse
Conditions: serum
Experimental: In AA#80, serum samples were collected on Day 27, Day 34, Day 41 and Day 55 via the submandibular vein. Approximately 200 μL of blood per mouse was collected in Microtainer® serum separator tubes. Serum was removed following centrifugation and stored at <−65° C. until analysis.
Selected serum samples were sent to Rules-Based Medicine (Austin, Tex.) for quantitative immunoassay multi-analyte profiling of serum samples, with the goal of identifying biomarkers that could be used to monitor disease progression and response to B7-H4-Ig treatment. Day 27, Day 34, and Day 41 sera from the three representative mice in the B7-H4-Ig group (tag #3332, 3334, and 3338) and three representative mice in the Synagis® group (tag #3324, 3329, and 3330) were analyzed for levels of 58 analytes using the RodentMAP v2.9 Testing Service.
Data from the Rules-Based Medicine analysis was analyzed using Microsoft Excel and GraphPad Prism software. T-tests were performed to compare the levels of each analyte in the B7-H4-Ig versus Synagis® treated samples. No correction was made for multiple comparisons. Additionally, correlation coefficients were calculated for each analyte versus disease score.

Human B7-H4-Ig: human B7-H4 extracellular domain fused to hinge, CH2 and CH3 regions of human immunoglobulin Cγ1 chain; representative SEQ ID NOs:114-137
SAP (Serum Amyloid P): Human LgG1 control vs. human B7-H4 Ig, ALL (p of difference between groups, ALL): 0.26 | SAP (Serum Amyloid P): Human LgG1 control vs. human B7-H4 Ig, D 27 (p of difference between groups, D 27): 0.32 | SAP (Serum Amyloid P): Human LgG1 control vs. human B7-H4 Ig, D 34 (p of difference between groups, D 34): 0.50 | SAP (Serum Amyloid P): Human LgG1 control vs. human B7-H4 Ig, D 41 (p of difference between groups, D 41): 0.13 | M-CSF (Macrophage-Colony Stimulating Factor) (Day 27, LDD 0.01795): 6.88 ng/mL and 6.51 ng/mL and 6.21 ng/mL | MIP-1gamma (Macrophage Inflammatory Protein-1gamma) (Day 27, LDD 0.0736): 43.2 ng/mL and 38.6 ng/mL and 32.1 ng/mL | TNF-alpha (Tumor Necrosis Factor-alpha) (Day 27, LDD 0.137): <low> | TEMP-1 (Tissue Inhibitor of Metalicproteinase Type-1) (Day 27, LDD 0.18): 1.38 ng/mL and 1.31 ng/mL and 1.14 ng/mL | IL-5 (Interleukin-5) (Day 27, LDD 0.194): 0.474 ng/mL and 0.333 ng/mL | MIP-1alpha (Macrophage Inflammatory Protein-1alpha) (Day 27, LDD 0.2255): 2.83 ng/mL and 3.13 ng/mL and 3.03 ng/mL | MIP-3beta (Macrophage Inflammatory Protein-3beta) (Day 27, LDD 0.465): 2.6 ng/mL and 2.79 ng/mL and 2.52 ng/mL | Tissue Factor (Day 27, LDD 0.5175): 8.32 ng/mL and 11.7 ng/mL and 10 ng/mL | MPO (Myeloperoxidase) (Day 27, LDD 0.95): 245 ng/mL and 227 ng/mL and 191 ng/mL | SGOT (Serum Glutamic-Oxaloacetic Transaminase) (Day 27, LDD 1.86): 74.3 µg/mL and 84.6 µg/mL and 94.3 µg/mL | TPO (Thromboproletin) (Day 27, LDD 2.66): 38 ng/mL and 39.8 ng/mL and 34.2 ng/mL | SAP (Setrum Amtyloid P) (Day 27, LDD 5.4): 41 µg/mL and 39.5 µg/mL and 30.7 µg/mL | MIP-2 (Macrophage Inflammatory Protein-2) (Day 27, LDD 7.174): 20.9 pg/mL and 16.3 pg/mL and 21.6 pg/mL | MMP-9 (Matrix Metalloproteinase-9) (Day 27, LDD 10): 266 ng/mL and 140 ng/mL | MCP-1 (Monocyte Chemoattractant Protein-1) (Day 27, LDD 16.924): 72.6 pg/mL and 55.4 pg/mL and 66.9 pg/mL | VCAM-1 (Vescular Cell Adhesion Molecule-1) (Day 27, LDD 19): 2250 ng/mL and 2120 ng/mL and 2130 ng/mL | MDC (Macrophage-Derived Chemokine) (Day 27, LDD 21.85): 1250 pg/mL and 1110 pg/mL and 1040 pg/mL | Myoglobin (Day 27, LDD 24): 17.5 ng/mL and 12.1 ng/mL and 9.69 ng/mL | MCP-3 (Monocyte Chemoattractant Protein-3) (Day 27, LDD 31.36): 160 pg/mL and 120 pg/mL and 129 pg/mL | VEGF (Vescular Endotheial Cell Growth Factor) (Day 27, LDD 38.2): 150 pg/mL and 128 pg/mL and 160 pg/mL | IP-10 (Inducible Protein-10) (Day 27, LDD 40.28): 57.3 pg/mL and 55.5 pg/mL and 38.6 pg/mL | LIF (Leukemia Infabitory Factor) (Day 27, LDD 43.6): 1540 pg/mL and 1500 pg/mL | MCP-5 (Monocyte Chemoattractant Protein-5) (Day 27, LDD 46.38): 41.4 pg/mL and 33.8 pg/mL and 29.4 pg/mL | SCF (Stem Cell Factor) (Day 27, LDD 75.17): 204 pg/mL and 194 pg/mL and 275 pg/mL | MIP-1beta (Macrophage Inflammatory Protein-1beta) (Day 27, LDD 77.65): 110 pg/mL and 115 pg/mL and 173 pg/mL | Lymphotactin (Day 27, LDD 85.48): 164 pg/mL and 169 pg/mL and 194 pg/mL | VWF (Von Willebrand Factor) (Day 27, LDD 98.6): 143 ng/mL and 123 ng/mL and 107 ng/mL | M-CSF (Macrophage-Colony Stimulating Factor) (Day 34, LDD 0.01795): 5.79 ng/mL and 6.35 ng/mL and 6.51 ng/mL | MIP-1gamma (Macrophage Inflammatory Protein-1gamma) (Day 34, LDD 0.0736): 50.4 ng/mL and 30.1 ng/mL and 41 ng/mL | TNF-alpha (Tumor Necrosis Factor-alpha) (Day 34, LDD 0.137): <low> | IL-5 (Interleukin-5) (Day 34, LDD 0.194): 0.474 ng/mL and 0.264 ng/mL and 0.403 ng/mL | MIP-1alpha (Macrophage Inflammatory Protein-1alpha) (Day 34, LDD 0.2255): 3.03 ng/mL and 2.88 ng/mL and 3.08 ng/mL | MIP-3beta (Macrophage Inflammatory Protein-3beta) (Day 34, LDD 0.465): 2.79 ng/mL and 2.49 ng/mL and 3.11 ng/mL | Tissue Factor (Day 34, LDD 0.5175): 10.8 ng/mL and 10.4 ng/mL and 13.3 ng/mL | MPO (Myeloperoxidase) (Day 34, LDD 0.95): 247 ng/mL and 254 ng/mL and 242 ng/mL | TPO (Thromboproletin) (Day 34, LDD 2.66): 43.4 ng/mL and 30.4 ng/mL and 36.1 ng/mL | SAP (Setrum Amtyloid P) (Day 34, LDD 5.4): 51.8 µg/mL and 31 µg/mL and 42.6 µg/mL | MIP-2 (Macrophage Inflammatory Protein-2) (Day 34, LDD 7.174): 36.8 pg/mL and 26.6 pg/mL and 22.2 pg/mL | MMP-9 (Matrix Metalloproteinase-9) (Day 34, LDD 10): 503 ng/mL and 334 ng/mL and 255 ng/mL | MCP-1 (Monocyte Chemoattractant Protein-1) (Day 34, LDD 16.924): 84.6 pg/mL and 56 pg/mL and 101 pg/mL | VCAM-1 (Vescular Cell Adhesion Molecule-1) (Day 34, LDD 19): 1860 ng/mL and 2190 ng/mL and 2470 ng/mL | MDC (Macrophage-Derived Chemokine) (Day 34, LDD 21.85): 1390 pg/mL and 1120 pg/mL and 1360 pg/mL | VEGF (Vescular Endotheial Cell Growth Factor) (Day 34, LDD 38.2): 160 pg/mL and 141 pg/mL and 155 pg/mL | IP-10 (Inducible Protein-10) (Day 34, LDD 40.28): 81 pg/mL and 59 pg/mL and 54.2 pg/mL | LIF (Leukemia Infabitory Factor) (Day 34, LDD 43.6): 1430 pg/mL and 1500 pg/mL and 1480 pg/mL | MCP-5 (Monocyte Chemoattractant Protein-5) (Day 34, LDD 46.38): 57.8 pg/mL and 29.2 pg/mL and 46.7 pg/mL | SCF (Stem Cell Factor) (Day 34, LDD 75.17): 182 pg/mL and 220 pg/mL and 217 pg/mL | Lymphotactin (Day 34, LDD 85.48): 196 pg/mL and 162 pg/mL and 197 pg/mL | VWF (Von Willebrand Factor) (Day 34, LDD 98.6): 101 ng/mL and 137 ng/mL and 135 ng/mL | M-CSF (Macrophage-Colony Stimulating Factor) (Day 41, LDD 0.01795): 5.02 ng/mL and 5.67 ng/mL and 6.07 ng/mL | MIP-1gamma (Macrophage Inflammatory Protein-1gamma) (Day 41, LDD 0.0736): 42.8 ng/mL and 32.7 ng/mL and 42.5 ng/mL | OSM (Oncostatin M) (Day 41, LDD 0.13): <low> | TNF-alpha (Tumor Necrosis Factor-alpha) (Day 41, LDD 0.137): <low> | IL-5 (Interleukin-5) (Day 41, LDD 0.194): 0.474 ng/mL and 0.254 ng/mL and 0.264 ng/mL | MIP-1alpha (Macrophage Inflammatory Protein-1alpha) (Day 41, LDD 0.2255): 3.13 ng/mL and 2.93 ng/mL and 3.03 ng/mL | IL-7 (Interleukin-7) (Day 41, LDD 0.309): <low> | MIP-3beta (Macrophage Inflammatory Protein-3beta) (Day 41, LDD 0.465): 3.05 ng/mL and 3.03 ng/mL and 2.87 ng/mL | Tissue Factor (Day 41, LDD 0.5175): 10.8 ng/mL and 9.17 ng/mL and 9.37 ng/mL | MPO (Myeloperoxidase) (Day 41, LDD 0.95): 208 ng/mL and 228 ng/mL and 285 ng/mL | SGOT (Serum Glutamic-Oxaloacetic Transaminase) (Day 41, LDD 1.86): 85.8 µg/mL and 93.9 µg/mL and 71.1 µg/mL | TPO (Thromboproletin) (Day 41, LDD 2.66): 38 ng/mL and 32.4 ng/mL and 36.1 ng/mL | SAP (Setrum Amtyloid P) (Day 41, LDD 5.4): 47.9 µg/mL and 38.6 µg/mL and 46 µg/mL | MIP-2 (Macrophage Inflammatory Protein-2) (Day 41, LDD 7.174): 25.9 pg/mL and 23.4 pg/mL and 19.7 pg/mL | MCP-1 (Monocyte Chemoattractant Protein-1) (Day 41, LDD 16.924): 71.9 pg/mL and 53.1 pg/mL and 74.8 pg/mL | VCAM-1 (Vescular Cell Adhesion Molecule-1) (Day 41, LDD 19): 1840 ng/mL and 1940 ng/mL and 2390 ng/mL | MDC (Macrophage-Derived Chemokine) (Day 41, LDD 21.85): 1350 pg/mL and 1110 pg/mL and 1290 pg/mL | MCP-3 (Monocyte Chemoattractant Protein-3) (Day 41, LDD 31.36): 197 pg/mL and 115 pg/mL and 132 pg/mL | VEGF (Vescular Endotheial Cell Growth Factor) (Day 41, LDD 38.2): 125 pg/mL and 120 pg/mL and 155 pg/mL | IP-10 (Inducible Protein-10) (Day 41, LDD 40.28): 69.3 pg/mL and 47.6 pg/mL and 59 pg/mL | LIF (Leukemia Infabitory Factor) (Day 41, LDD 43.6): 1540 pg/mL and 1980 pg/mL | MCP-5 (Monocyte Chemoattractant Protein-5) (Day 41, LDD 46.38): 48.8 pg/mL and 35.7 pg/mL and 37.9 pg/mL | SCF (Stem Cell Factor) (Day 41, LDD 75.17): 175 pg/mL and 198 pg/mL and 210 pg/mL | Lymphotactin (Day 41, LDD 85.48): 187 pg/mL and 148 pg/mL | VWF (Von Willebrand Factor) (Day 41, LDD 98.6): 113 ng/mL and 111 ng/mL and 133 ng/mL
